Source: PMC3375280 (PLoS ONE, 2012)
Numbering of substitutions follows the chain as printed.

Key:
[1] = target: T1, AT1 F117A mutant receptor (Rattus norvegicus, UniProt P25095, F117A); experiment: competition binding, F117A mutant; details: for Kd ratio relative to WT (in parentheses): F117A / WT; for Kd: F117A, COS1 membranes, read-out: Binding affinity (Kd)
T1 construct: expressed in transfected cells; host or cells: COS1
T1 sequence (P25095 1-359 F117A): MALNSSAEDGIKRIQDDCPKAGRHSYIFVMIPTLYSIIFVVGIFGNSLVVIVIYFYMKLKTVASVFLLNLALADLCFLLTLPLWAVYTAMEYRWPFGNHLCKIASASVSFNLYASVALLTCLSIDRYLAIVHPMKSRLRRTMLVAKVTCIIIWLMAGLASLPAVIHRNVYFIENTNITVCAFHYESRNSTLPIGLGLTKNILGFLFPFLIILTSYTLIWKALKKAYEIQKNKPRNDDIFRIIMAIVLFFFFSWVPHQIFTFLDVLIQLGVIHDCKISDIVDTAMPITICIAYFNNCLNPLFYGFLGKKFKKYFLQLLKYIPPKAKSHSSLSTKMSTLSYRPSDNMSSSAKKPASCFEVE
Experimental: (§1) The Kd and Bmax values of receptor binding were determined by ^125I-[Sar^1, Ile^8] […] Membranes expressing the WT or mutant AT1 receptors were incubated with 100 pM ^125I-[Sar^1, Ile^8] […] The binding reaction was terminated by filtering the incubation mixture through Whatman GF/C glass filters, and the residues were extensively washed further with binding buffer. The bound ligand fraction was determined from the counts per minute (cpm) remaining on the membrane. Binding kinetics values were determined as previously described.

[2] = target: T2, AT1 A106G mutant receptor (Rattus norvegicus, UniProt P25095, A106G); experiment: competition binding, A106G mutant; details: for Kd ratio relative to WT (in parentheses): A106G / WT; for Kd: A106G, COS1 membranes, read-out: Binding affinity (Kd)
T2 construct: expressed in transfected cells; host or cells: COS1
T2 sequence (P25095 1-359 A106G): T1 sequence (P25095 1-359 F117A) with A106G, A117F
Experimental: as §1

[3] = target: T3, AT1 V116A mutant receptor (Rattus norvegicus, UniProt P25095, V116A); experiment: competition binding, V116A mutant; details: for Kd ratio relative to WT (in parentheses): V116A / WT; for Kd: V116A, COS1 membranes, read-out: Binding affinity (Kd)
T3 construct: expressed in transfected cells; host or cells: COS1
T3 sequence (P25095 1-359 V116A): T1 sequence (P25095 1-359 F117A) with V116A, A117F
Experimental: as §1

[4] = target: T4, AT1 V108A mutant receptor (Rattus norvegicus, UniProt P25095, V108A); experiment: competition binding, V108A mutant; details: for Kd ratio relative to WT (in parentheses): V108A / WT; for Kd: V108A, COS1 membranes, read-out: Binding affinity (Kd)
T4 construct: expressed in transfected cells; host or cells: COS1
T4 sequence (P25095 1-359 V108A): T1 sequence (P25095 1-359 F117A) with V108A, A117F
Experimental: as §1

[5] = target: T5, wild-type (WT) AT1 receptor (Rattus norvegicus, UniProt P25095); experiment: inositol phosphate (IP) production in COS1 cells expressing WT AT1 receptor; details: 1 µM compound, vs basal IP production
T5 sequence (P25095 1-359): T1 sequence (P25095 1-359 F117A) with A117F
Experimental: The test compounds were added 1 h before the measurement of IP.
The WT and mutant AT1 receptors were transiently transfected into COS1 cells using Lipofectamine 2000 liposomal reagent (Roche Applied Science) according to the manufacturer’s instructions.
Cells expressing the WT and mutant AT1 receptors were incubated for 30 minutes at 22°C with or without the indicated concentrations of ARBs. The cells were washed-out once with the use of excess cold HBSS, and used in an IP production study. Total soluble IP was measured by the perchloric acid extraction method, as described previously [16].

[6] = target: T6, AT1 C76A/Y113C/C289A mutant receptor (Rattus norvegicus, UniProt P25095, C289A/C76A/Y113C); experiment: competition binding, C76A/Y113C/C289A mutant; details: for Kd ratio relative to WT (in parentheses): C76A/Y113C/C289A / WT; for Kd: C76A/Y113C/C289A, COS1 membranes, read-out: Binding affinity (Kd)
T6 construct: expressed in transfected cells; host or cells: COS1 cells (membranes)
T6 sequence (P25095 1-359 C76A/Y113C/C289A): T1 sequence (P25095 1-359 F117A) with C76A, Y113C, A117F, C289A
Experimental: as §1

SMILES | Kd ratio relative to WT (in parentheses) [1] | Kd [1] | Kd ratio relative to WT (in parentheses) [2] | Kd [2] | Kd ratio relative to WT (in parentheses) [3] | Kd [3] | Kd ratio relative to WT (in parentheses) [4] | Kd [4] | Pharmacological behaviour toward IP production (agonism / neutral antagonism / inverse agonism) [5] | Kd ratio relative to WT (in parentheses) [6] | Kd [6]
CCCc1nc(C(C)(C)O)c(C(N)=O)n1Cc1ccc(-c2ccccc2-c2nnn[nH]2)cc1 [R239470] | 1.9 fold | 1.5 ± 0.04 nM | 6.0 fold | 4.8 ± 1.5 nM | 3.2 fold | 2.6 ± 0.7 nM | 2.0 fold | 1.6 ± 0.8 nM | neutral antagonist | 340 fold | 272 ± 129 nM
CCCc1nc(C(C)(C)O)c(C(N)=O)n1Cc1ccc(-c2cc(Cc3ccc(O)cc3)ccc2-c2nnn[nH]2)cc1 [R794847] | 1.1 fold | 54 ± 19 nM | 17 fold | 792 ± 202 nM | 45 fold | 2150 ± 802 nM | 51 fold | 2450 ± 1310 nM | agonism | 134 fold | 6420 ± 2570 nM
CCCc1nc(C(C)(C)O)c(C(=O)O)n1Cc1ccc(-c2ccccc2-c2nnn[nH]2)cc1 [Olmesartan, olmesartan, reference compound] | 1.1 fold | 2.5 ± 1.4 nM | 2.6 fold | 6.1 ± 2.2 nM | 3.8 fold | 8.8 ± 1.2 nM | 2.1 fold | 4.8 ± 2 nM | inverse agonist | 248 fold | 570 ± 197 nM
